Experiments:
Assay type in all cases: in vivo
[1] = system: Myzus persicae (Green Peach Aphid); test: Activity against Myzus persicae (green peach aphid), systemic activity; settings: 144 h, test rate of 24 ppm, roots of infested pea seedlings in test solution (systemic), 6 days
Procedure: Example B9: Activity Against Myzus persicae (Green Peach Aphid) Systemic Activity
Roots of pea seedlings infested with an aphid population of mixed ages were placed directly into aqueous test solutions prepared from 10′000 DMSO stock solutions. The samples were assessed for mortality 6 days after placing seedlings into test solutions.

[2] = system: Plutella xylostella (Diamond Back Moth); test: Activity against Plutella xylostella (diamond back moth); settings: 192 h, application rate of 200 ppm, artificial diet, Plutella eggs, 8 days after infestation, read-out: effect in at least one of the two categories (mortality or growth inhibition)
Procedure: Example B7: Activity Against Plutella xylostella (Diamond Back Moth)
24-well microtiter plates with artificial diet were treated with aqueous test solutions prepared from 10′000 ppm DMSO stock solutions by pipetting. After drying, Plutella eggs were pipetted through a plastic stencil onto a gel blotting paper and the plate was closed with it. The samples were assessed for mortality and growth inhibition in comparison to untreated samples 8 days after infestation.

[3] = system: Chilo suppressalis (Striped Rice Stemborer); test: Activity against Chilo suppressalis (striped rice stemborer); settings: 144 h, application rate of 200 ppm, artificial diet, L2 larvae, 6 days after infestation, read-out: control (at least one of mortality, anti-feedant effect, growth inhibition)
Procedure: Example B2: Activity Against Chilo suppressalis (Striped Rice Stemborer)
24-well microtiter plates with artificial diet were treated with aqueous test solutions prepared from 10′000 ppm DMSO stock solutions by pipetting. After drying, the plates were infested with L2 larvae (6-8 per well). The samples were assessed for mortality, anti-feeding effect, and growth inhibition in comparison to untreated samples 6 days after infestation. Control of Chilo suppressalis by a test sample is given when at least one of the categories mortality, anti-feedant effect, and growth inhibition is higher than the untreated sample.

[4] = system: Spodoptera littoralis (Egyptian Cotton Leaf Worm); test: Activity against Spodoptera littoralis (Egyptian cotton leaf worm); settings: foliar, 72 h, application rate of 200 ppm, cotton leaf discs sprayed, L1 larvae, 3 days after infestation, read-out: control (at least one of mortality, anti-feedant effect, growth inhibition)
Procedure: Example B8: Activity Against Spodoptera littoralis (Egyptian Cotton Leaf Worm)
Cotton leaf discs were placed onto agar in 24-well microtiter plates and sprayed with aqueous test solutions prepared from 10′000 ppm DMSO stock solutions. After drying the leaf discs were infested with five L1 larvae. The samples were assessed for mortality, anti-feeding effect, and growth inhibition in comparison to untreated samples 3 days after infestation. Control of Spodoptera littoralis by a test sample is given when at least one of the categories mortality, anti-feedant effect, and growth inhibition is higher than the untreated sample.

[5] = system: Diabrotica balteata (Corn Root Worm); test: Activity against Diabrotica balteata (corn root worm); settings: 96 h, application rate of 200 ppm, maize sprouts sprayed, L2 larvae, 4 days after infestation, read-out: effect in at least one of the two categories (mortality or growth inhibition)
Procedure: Example B3: Activity Against Diabrotica balteata (Corn Root Worm)
Maize sprouts placed onto an agar layer in 24-well microtiter plates were treated with aqueous test solutions prepared from 10′000 ppm DMSO stock solutions by spraying. After drying, the plates were infested with L2 larvae (6 to 10 per well). The samples were assessed for mortality and growth inhibition in comparison to untreated samples 4 days after infestation.

[6] = system: Myzus persicae (Green Peach Aphid); test: Activity against Myzus persicae (green peach aphid), feeding/contact activity; settings: foliar, 144 h, application rate of 200 ppm, sunflower leaf discs sprayed, aphid population of mixed ages, 6 days after infestation
Procedure: Example B6: Activity Against Myzus persicae (Green Peach Aphid) Feeding/Contact Activity
Sunflower leaf discs were placed onto agar in a 24-well microtiter plate and sprayed with aqueous test solutions prepared from 10′000 ppm DMSO stock solutions. After drying, the leaf discs were infested with an aphid population of mixed ages. The samples were assessed for mortality 6 days after infestation.

[7] = system: Euschistus heros (Neotropical Brown Stink Bug); test: Activity against Euschistus heros (neotropical brown stink bug); settings: 120 h, application rate of 200 ppm, soybean leaves sprayed, N2 nymphs, 5 days after infestation, read-out: effect in at least one of the two categories (mortality or growth inhibition)
Procedure: Example B4: Activity Against Euschistus heros (Neotropical Brown Stink Bug)
Soybean leaves on agar in 24-well microtiter plates were sprayed with aqueous test solutions prepared from 10′000 ppm DMSO stock solutions. After drying the leaves were infested with N2 nymphs. The samples were assessed for mortality and growth inhibition in comparison to untreated samples 5 days after infestation.

CCS(=O)(=O)c1c(N2Cc3cc4c(cc3C2=O)OC(F)(F)O4)nc(-c2cncnc2)n1C [Compound P7, 6-(5-ethylsulfonyl-1-methyl-2-pyrimidin-5-yl-imidazol-4-yl)-2,2-difluoro-5H-[1,3]dioxolo[4,5-f]isoindol-7-one]
≥ 80%: mortality at 24 ppm [1] | percent effect (mortality or growth inhibition) at 200 ppm [2]

CCS(=O)(=O)c1ccc(-n2cncn2)nc1N1Cc2cc3c(cc2C1=O)OC(F)(F)O3 [Compound P11, 6-[3-ethylsulfonyl-6-(1,2,4-triazol-1-yl)-2-pyridyl]-2,2-difluoro-5H-[1,3]dioxolo[4,5-f]isoindol-7-one]
≥ 80%: percent control (mortality, anti-feedant effect or growth inhibition) at 200 ppm [3] | percent control (mortality, anti-feedant effect or growth inhibition) at 200 ppm [4] | percent effect (mortality or growth inhibition) at 200 ppm [2] | percent effect (mortality or growth inhibition) at 200 ppm [5]

CCS(=O)(=O)c1cc(N(C)C(C)=O)cnc1N1Cc2cc3c(cc2C1=O)OC(F)(F)O3 [Compound P18, N-[6-(2,2-difluoro-7-oxo-5H-[1,3]dioxolo[4,5-f]isoindol-6-yl)-5-ethylsulfonyl-3-pyridyl]-N-methyl-acetamide]
≥ 80%: mortality at 200 ppm [6] | percent effect (mortality or growth inhibition) at 200 ppm [2] | percent effect (mortality or growth inhibition) at 200 ppm [7]

CCS(=O)(=O)c1c(N2Cc3cc4c(cc3C2=O)OC(F)(F)O4)nc(-c2cnn(CC3(C#N)CC3)c2)n1C [Compound P5, 1-[[4-[4-(2,2-difluoro-7-oxo-5H-[1,3]dioxolo[4,5-f]isoindol-6-yl)-5-ethylsulfonyl-1-methyl-imidazol-2-yl]pyrazol-1-yl]methyl]cyclopropanecarbonitrile]
≥ 80%: mortality at 24 ppm [1] | mortality at 200 ppm [6] | percent effect (mortality or growth inhibition) at 200 ppm [2]

CCS(=O)(=O)c1c(N2Cc3cc4c(cc3C2=O)OC(F)(F)O4)nc(-c2cnn(C3CC3)c2)n1C [Compound P17, 6-[2-(1-cyclopropylpyrazol-4-yl)-5-ethylsulfonyl-1-methyl-imidazol-4-yl]-2,2-difluoro-5H-[1,3]dioxolo[4,5-f]isoindol-7-one]
≥ 80%: percent control (mortality, anti-feedant effect or growth inhibition) at 200 ppm [3] | percent control (mortality, anti-feedant effect or growth inhibition) at 200 ppm [4] | mortality at 200 ppm [6] | percent effect (mortality or growth inhibition) at 200 ppm [2] | percent effect (mortality or growth inhibition) at 200 ppm [5] | percent effect (mortality or growth inhibition) at 200 ppm [7]

CCS(=O)(=O)c1ccc(C2CC2)nc1N1Cc2cc3c(cc2C1=O)OC(F)(F)O3 [Compound P10, 6-(6-cyclopropyl-3-ethylsulfonyl-2-pyridyl)-2,2-difluoro-5H-[1,3]dioxolo[4,5-f]isoindol-7-one]
≥ 80%: percent control (mortality, anti-feedant effect or growth inhibition) at 200 ppm [3] | percent control (mortality, anti-feedant effect or growth inhibition) at 200 ppm [4] | percent effect (mortality or growth inhibition) at 200 ppm [2] | percent effect (mortality or growth inhibition) at 200 ppm [7]

CCS(=O)(=O)c1c(N2Cc3cc4c(cc3C2=O)OC(F)(F)O4)nc(OCC(F)(F)F)n1C [Compound P6, 6-[5-ethylsulfonyl-1-methyl-2-(2,2,2-trifluoroethoxy)imidazol-4-yl]-2,2-difluoro-5H-[1,3]dioxolo[4,5-f]isoindol-7-one]
≥ 80%: percent control (mortality, anti-feedant effect or growth inhibition) at 200 ppm [3] | percent control (mortality, anti-feedant effect or growth inhibition) at 200 ppm [4] | percent effect (mortality or growth inhibition) at 200 ppm [2] | percent effect (mortality or growth inhibition) at 200 ppm [5]

CCS(=O)(=O)c1cc(OCC(C)(F)F)cnc1N1Cc2cc3c(cc2C1=O)OC(F)(F)O3 [Compound P12, 6-[5-(2,2-difluoropropoxy)-3-ethylsulfonyl-2-pyridyl]-2,2-difluoro-5H-[1,3]dioxolo[4,5-f]isoindol-7-one]
≥ 80%: percent control (mortality, anti-feedant effect or growth inhibition) at 200 ppm [3] | percent control (mortality, anti-feedant effect or growth inhibition) at 200 ppm [4] | mortality at 200 ppm [6] | percent effect (mortality or growth inhibition) at 200 ppm [2] | percent effect (mortality or growth inhibition) at 200 ppm [5] | percent effect (mortality or growth inhibition) at 200 ppm [7]

CCS(=O)(=O)c1c(N2Cc3cc4c(cc3C2=O)OC(F)(F)O4)nc(-n2ccc(Cl)n2)n1C [Compound P21, 6-[2-(3-chloropyrazol-1-yl)-5-ethylsulfonyl-1-methyl-imidazol-4-yl]-2,2-difluoro-5H-[1,3]dioxolo[4,5-f]isoindol-7-one]
≥ 80%: percent control (mortality, anti-feedant effect or growth inhibition) at 200 ppm [4] | mortality at 200 ppm [6] | percent effect (mortality or growth inhibition) at 200 ppm [2] | percent effect (mortality or growth inhibition) at 200 ppm [5] | percent effect (mortality or growth inhibition) at 200 ppm [7]

CCS(=O)(=O)c1cc(OCC(F)(F)F)cnc1N1Cc2cc3c(cc2C1=O)OC(F)(F)O3 [Compound P8, 6-[3-ethylsulfonyl-5-(2,2,2-trifluoroethoxy)-2-pyridyl]-2,2-difluoro-5H-[1,3]dioxolo[4,5-f]isoindol-7-one]
≥ 80%: percent control (mortality, anti-feedant effect or growth inhibition) at 200 ppm [3] | percent control (mortality, anti-feedant effect or growth inhibition) at 200 ppm [4] | percent effect (mortality or growth inhibition) at 200 ppm [2] | percent effect (mortality or growth inhibition) at 200 ppm [5]

CCS(=O)(=O)c1c(N2Cc3cc4c(cc3C2=O)OC(F)(F)O4)nc(-c2cc(C3CC3)no2)n1C [Compound P26, 6-[2-(3-cyclopropylisoxazol-5-yl)-5-ethylsulfonyl-1-methyl-imidazol-4-yl]-2,2-difluoro-5H-[1,3]dioxolo[4,5-f]isoindol-7-one]
≥ 80%: percent control (mortality, anti-feedant effect or growth inhibition) at 200 ppm [3] | percent control (mortality, anti-feedant effect or growth inhibition) at 200 ppm [4] | mortality at 200 ppm [6] | percent effect (mortality or growth inhibition) at 200 ppm [2] | percent effect (mortality or growth inhibition) at 200 ppm [5]

CCS(=O)(=O)c1cc(C(F)(F)F)cnc1N1Cc2cc3c(cc2C1=O)OC(F)(F)O3 [Compound P13, 6-[3-ethylsulfonyl-5-(trifluoromethyl)-2-pyridyl]-2,2-difluoro-5H-[1,3]dioxolo[4,5-f]isoindol-7-one]
≥ 80%: percent control (mortality, anti-feedant effect or growth inhibition) at 200 ppm [3] | percent control (mortality, anti-feedant effect or growth inhibition) at 200 ppm [4] | percent effect (mortality or growth inhibition) at 200 ppm [2]

CCS(=O)(=O)c1cc(C2CC2)cnc1N1Cc2cc3c(cc2C1=O)OC(F)(F)O3 [Compound P19, 6-(5-cyclopropyl-3-ethylsulfonyl-2-pyridyl)-2,2-difluoro-5H-[1,3]dioxolo[4,5-f]isoindol-7-one]
≥ 80%: percent control (mortality, anti-feedant effect or growth inhibition) at 200 ppm [3] | percent control (mortality, anti-feedant effect or growth inhibition) at 200 ppm [4] | mortality at 200 ppm [6] | percent effect (mortality or growth inhibition) at 200 ppm [2] | percent effect (mortality or growth inhibition) at 200 ppm [5]

From US12595266B2, “Pesticidally active heterocyclic derivatives with sulfur containing substituents” (SYNGENTA CROP PROTECTION AG, priority 2020, dated 2026)
